# From US20080161258A1, “Hsp and Supraventricular Arrhythmia” (priority 2004, published 2008)
# Entries after “also recorded” stand apart in the source; their conditions may differ.
# Key:
# [1] = system: HSP27 and HSP70 expression in HL-1 myocytes; assay: HSP expression in paced HL-1 myocytes (Western blot); type: cell-based, mouse; details: 0.1 μM GGA two hours prior to and during pacing, FIG. 3A
# Procedure: (§1) The HL-1 atrial myocytes, developed from adult mouse atria^29 were obtained from Dr. William Claycomb (Louisiana State University, New Orleans, La., USA) and cultured as described before.^28
# HL-1 myocytes (≧1×10^6 myocytes) were cultured on coverslips and subjected to a 10-fold rate increase (rapid pacing) by electrical field stimulation (5 Hz, 1.5 V/cm field strength; Grass S88 stimulator).^28 Elevation of HSP expression in cultured myocytes was accomplished in 3 ways: (I) by subjection to a modest heat stress at 43° C. for 30 min followed by overnight incubation at 37° C., (II) by incubation with 0.1 μM geranylgeranylacetone (GGA, gift from M. Kawai, Japan) two hours prior to and during pacing and (III) by transfection of pHSP70-YFP or pHSP27 24 hrs prior to pacing.
# For Western-blot analysis, frozen RAAs and LAAs were used for protein isolation as described previously.^6 For the isolation of proteins from HL-1 myocytes, the cells were lysed by the addition of SDS-PAGE sample buffer followed by sonication before separation on 10% PAA-SDS gels (1.10^5 cells/slot). […] Signals were detected by the ECL-detection method (Amersham, The Netherlands) and quantified by densitometry. […]
# HL-1 myocytes = assay: Pacing-induced myolysis in HL-1 myocytes (myosin immunofluorescence); type: cell-based, mouse
# Source text: as §1
# Lipofectamine (Life technologies, The Netherlands) was used for transient transfections according to instructions of the manufacturer. pHSP70-YFP encodes a functional human HSP70 fused to YFP under control of a CMV promoter. pHSP27 encodes human HSP27 under control of CMV promoter. […]
# After subjecting HL-1 myocytes to rapid pacing, the cells were fixed for 10 minutes in 100% methanol (−20° C.), dried and blocked in 5% BSA (20 minutes room temperature). […] Images of FITC, YFP or CY3 and DAPI fluorescence were obtained by using a Leica confocal laser-scanning microscope (Leica TCS SP2).
# For the quantification of the amount of myolysis, at least 5 fields were examined with to a total amount of 250-500 myocytes, and myosin disruption (characteristic for myolysis^12) was scored by three independent observers blinded for the experimental groups. […]
# HL-1 cells [2] = assay: Calcium transients and cell shortening in tachypaced HL-1 cells; type: cell-based, mouse
# Procedure: In addition to myolysis, we studied the effects of short-term tachypacing of HL-1 cells (3 Hz for 2, 3 and 4 hrs) on Ca^2+ transients (CaTs) and cell shortening (CS) in HL-1 cells, with and without pre-treatment to induce HSP expression: the heat shock stress response inducer geranylgeranylacetone (GGA, 10 μM) or heat shock at 43° C. for 20 minutes (HS) or transient transfection with human HSP27 (pHSP27). In brief, myocytes were field-stimulated with 10-ms twice-threshold strength square-wave pulses. CS was measured with a video edge-detector connected to a charge-coupled device. To record CaTs, myocytes were incubated with indo-1 AM (5-μM) for 5-7 min. Myocytes were then superfused at room temperature for at least 40 min to wash out extracellular indicator and to allow for deesterification. Background and cell autofluorescence were cancelled by zeroing the photomultiplier output in a cell without indo-1 loading. Ultraviolet light from a 100-W mercury arc lamp passing through a 340-nm interference filter (±10 nm bandwidth) was reflected by a dichroic mirror into a ×40 oil-immersion fluor objective for excitation of intracellular indo-1 (excitation beam ˜15 μm diameter). Exposure of the cell to UV light (5-10 of every 30-60 s) was controlled by an electronic shutter (Optikon, model T132) to minimize photobleaching. Emitted light (<550 nm) was reflected into a spectral separator, passed through parallel filters at 400 and 500 nm (+10 nm), detected by matched photomultiplier-tubes (Hamamatsu R2560 HA) and electronically filtered at 60 Hz. The ratio of fluorescence signals (R400/500) was digitized (1 kHz) and used as the index of [Ca^2+]i^(48).
# HL-1 cells [3] = assay: Calcium current density (ICa++) in paced HL-1 cells; type: cell-based, mouse; details: HL-1 cells paced for 4 h; GGA two hours prior to and during pacing; FIG. 5
# Procedure: I-V relationships of peak ICα++ in non-paced (CON) and paced (PC) HL-1 cells. ICα++ was recorded using 300-ms voltage steps to between −70 and +70 mV from −80 mV.
# [4] = system: dogs subjected to atrial tachypacing; assay: Atrial tachycardia-induced remodeling in dogs (atrial tachypacing); type: in vivo, dog; details: ATP 400 bpm for 7 days
# Procedure: The effect of HSP induction on in vivo AF-promotion was examined studying the effect of GGA on atrial tachycardia-induced remodeling in dogs (49). Dogs were subjected to atrial tachypacing (ATP) at 400 bpm for 7 days in the absence (ATP, n=5) and presence of oral GGA treatment (120 mg/kg/day, n=3), starting 3 days prior to ATP onset and continued throughout ATP. Results were compared to a non-paced control group (NP, n=5 dogs). Mongrel dogs (20 to 37 kg) were anesthetized with ketamine (5.3 mg/kg IV), diazepam (0.25 mg/kg IV), and halothane (1.5%). Unipolar leads were inserted through jugular veins into the right ventricular (RV) apex and right atrial (RA) appendage and connected to pacemakers (Medtronic) in subcutaneous pockets in the neck. A bipolar electrode was inserted into the RA for stimulation and recording during serial electrophysiological study (EPS). AV block was created by radiofrequency ablation to control ventricular response during atrial tachypacing (ATP). The RV pacemaker was programmed to 80 bpm. For open-chest EPS, dogs were anesthetized with morphine (2 mg/kg SC) and α-chloralose (120 mg/kg IV, followed by 29.25 mg·kg^−1·h^−1), and ventilated mechanically. Body temperature was maintained at 37° C., and a femoral artery and both femoral veins were cannulated for pressure monitoring and drug administration. A median sternotomy was performed, and bipolar electrodes were hooked to the RA and left atrial (LA) appendages for recording and stimulation. A programmable stimulator (Digital Cardiovascular Instruments) was used to deliver twice-threshold currents. Five silicon sheets containing 240 bipolar electrodes were sutured onto the atrial surfaces as previously described.^6-8http://circ.ahajournals.org/cgi/content/full/110/16/2313-R7-155347http://circ.ahajournals.org/cgi/content/full/110/16/2313-R8-155347 Atrial effective refractory periods (ERPs) were measured at multiple basic cycle lengths (BCLs) in the RA and LA appendages. AF vulnerability was determined as the percentage of atrial sites at which AF could be induced by single extrastimuli. After 24 hours for recovery, a baseline closed-chest EPS was performed under ketamine/diazepam/isoflurane anesthesia, and then ATP (400 bpm) was initiated. Closed-chest EPS was repeated at day 7 of ATP, and a final open-chest EPS was performed under morphine/α-chloralose anesthesia.
substance,measurement,setting,value
geranylgeranylacetone [GGA],HSP27 expression,[1],substantial elevations; also recorded: induces the expression
same,HSP70 expression,[1],substantial elevations; also recorded: induces the expression
same,Immunofluorescent staining of myosin in paced myocytes,"HL-1 myocytes; 16 hrs paced HL-1 myocytes, FIG. 3B",myosin-staining remains diffusely distributed in the cytoplasm
same,pacing-induced myolysis,"HL-1 myocytes; HL-1 myocytes, rapid pacing 5 Hz, GGA 0.1 μM two hours prior to and during pacing, or transfection 24 hrs prior to pacing",significant reduction
same,pacing-induced CaT and CS reductions,"HL-1 cells [2]; HL-1 cells tachypaced 3 Hz for 2, 3 and 4 hrs, GGA 10 μM or transient transfection with pHSP27",significantly prevented
same,reduction of Ca2+ transients (CaT) after pacing,"HL-1 cells [2]; HL-1 cells, 3 Hz, 2 hrs pacing, GGA 10 μM, p=0.01 vs tachypaced without GGA",2%±6%
same,reduction of cell-shortening (CS) after pacing,"HL-1 cells [2]; HL-1 cells, 3 Hz, 2 hrs pacing, GGA 10 μM, p=0.03 vs tachypaced without GGA",11%±3%
same,pacing-induced reduction of calcium current density (Ica++),HL-1 cells [3],the reduction was prevented; also recorded: strongly
same,"ATP-induced changes (DAF, ERP, vulnerability)",[4]; oral GGA 120 mg/kg/day,almost completely suppressed
same,duration of induced AF (DAF),"[4]; oral GGA 120 mg/kg/day starting 3 days prior to ATP, p<0.05 vs ATP",39 ± 15 s
same,atrial effective refractory period (ERP),"[4]; oral GGA 120 mg/kg/day, basic cycle length 300 ms, p<0.05 vs ATP",102 ± 3 ms
same,atrial vulnerability to AF (% of atrial sites in which AF was induced by a single extra stimulus),"[4]; oral GGA 120 mg/kg/day, p<0.05 vs ATP",13±7%
